Measured values: patent publication US8952157B2, “Apoptosis-inducing agents for the treatment of cancer and immune and autoimmune diseases” (AbbVie Inc., priority 2008, dated 2015)

These compounds were tested against GST-Bcl-2 (Homo sapiens (Human), UniProt P10415) (assay: Time Resolved-Fluorescence Resonance Energy Transfer (TR-FRET) Bcl-2 binding assay). Conditions: not given.
Chain of GST-Bcl-2 (P10415 whole entry): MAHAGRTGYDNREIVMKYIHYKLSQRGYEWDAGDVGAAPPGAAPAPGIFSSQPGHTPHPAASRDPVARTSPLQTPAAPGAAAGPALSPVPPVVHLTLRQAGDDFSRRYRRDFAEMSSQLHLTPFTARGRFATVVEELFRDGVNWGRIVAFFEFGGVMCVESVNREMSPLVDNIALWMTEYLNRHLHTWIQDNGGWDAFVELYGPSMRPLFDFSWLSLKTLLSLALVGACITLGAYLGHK
Summary of the method: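 Ki values derived from TR-FRET displacement of F-Bak peptide from GST-Bcl-2, detected with Tb-labelled anti-GST antibody (ex 340, em 520/495 nm). Compound dilution series started at 50 μM (2× starting concentration); room-temperature incubation 3 hours.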
`CC1(C)CCC(CN2CCN(c3ccc(C(=O)NS(=O)(=O)c4ccc(N[C@H]5CC[C@H](N6CCOCC6)CC5)c([N+](=O)[O-])c4)c(Oc4cc5cc[nH]c5cc4F)c3)CC2)=C(c2ccc(Cl)cc2)C1` [Example 234, Trans-4-(4-{[2-(4-chlorophenyl)-4,4-dimethylcyclohex-1-en-1-yl]methyl}piperazin-1-yl)-2-[(6-fluoro-1H-indol-5-yl)oxy]-N-({4-[(4-morpholin-4-ylcyclohexyl)amino]-3-nitrophenyl}sulfonyl)benzamide] gave a Ki of 0.099 nM.

Same assay, conditions: GST-Bcl-2 1 nM, F-Bak peptide probe 100 nM, Tb-anti-GST antibody 1 nM; Ki by Wang's equation
In the case of `CC1(C)CCC(CN2CCN(c3ccc(C(=O)NS(=O)(=O)c4cnc(NC5CCN(C6CCOCC6)CC5)c(Br)c4)c(Oc4cc5cc[nH]c5cc4F)c3)CC2)=C(c2ccc(Cl)cc2)C1` [Example 312, N-({5-bromo-6-[(1-tetrahydro-2H-pyran-4-ylpiperidin-4-yl)amino]pyridin-3-yl}sulfonyl)-4-(4-{[2-(4-chlorophenyl)-4,4-dimethylcyclohex-1-en-1-yl]methyl}piperazin-1-yl)-2-[(6-fluoro-1H-indol-5-yl)oxy]benzamide], the Ki is reported as 0.531 nM. `CN1CCC(Nc2ccc(S(=O)(=O)NC(=O)c3ccc(N4CCN(CC5=C(c6ccc(Cl)cc6)CC(C)(C)CC5)CC4)cc3Oc3ccccc3Cl)cc2S(=O)(=O)C(F)(F)F)CC1` [Example 59, 2-(2-chlorophenoxy)-4-(4-((2-(4-chlorophenyl)-4,4-dimethylcyclohex-1-en-1-yl)methyl)piperazin-1-yl)-N-((4-((1-methylpiperidin-4-yl)amino)-3-((trifluoromethyl)sulfonyl)phenyl)sulfonyl)benzamide] gave a Ki of 0.184 nM. `CC1(C)CCC(CN2CCN(c3ccc(C(=O)NS(=O)(=O)c4ccc(NCC5CCOCC5)c([N+](=O)[O-])c4)c(Oc4ccc(OCc5ccccc5)nc4)c3)CC2)=C(c2ccc(Cl)cc2)C1` [Example 284, 2-{[6-(benzyloxy)pyridin-3-yl]oxy}-4-(4-{[2-(4-chlorophenyl)-4,4-dimethylcyclohex-1-en-1-yl]methyl}piperazin-1-yl)-N-({3-nitro-4-[(tetrahydro-2H-pyran-4-ylmethyl)amino]phenyl}sulfonyl)benzamide] was tested, and the Ki was 79.3 nM. Work on `CN(C)CC(=O)N1CCC(F)(COc2ncc(S(=O)(=O)NC(=O)c3ccc(N4CCN(CC5=C(c6ccc(Cl)cc6)CC(C)(C)CC5)CC4)cc3Oc3cnc(N)c(Cl)c3)cc2Cl)CC1` [Example 393, 2-[(6-amino-5-chloropyridin-3-yl)oxy]-N-[(5-chloro-6-{[1-(N,N-dimethylglycyl)-4-fluoropiperidin-4-yl]methoxy}pyridin-3-yl)sulfonyl]-4-(4-{[2-(4-chlorophenyl)-4,4-dimethylcyclohex-1-en-1-yl]methyl}piperazin-1-yl)benzamide] yielded a Ki of under 0.01 nM. Work on `CN1CCC(Nc2ccc(S(=O)(=O)NC(=O)c3ccc(N4CCN(CC5=C(c6ccc(Cl)cc6)CC(C)(C)OC5)CC4)cc3Oc3cccc(I)c3)cc2[N+](=O)[O-])CC1` [Example 161, 4-(4-{[4-(4-chlorophenyl)-6,6-dimethyl-5,6-dihydro-2H-pyran-3-yl]methyl}piperazin-1-yl)-2-(3-iodophenoxy)-N-({4-[(1-methylpiperidin-4-yl)amino]-3-nitrophenyl}sulfonyl)benzamide] yielded a Ki of 0.031 nM. `O=C(NS(=O)(=O)c1ccc(NCC2CCOCC2)c([N+](=O)[O-])c1)c1ccc(N2CCN(Cc3ccccc3-c3ccc(Cl)cc3)CC2)cc1Oc1ccc(Cl)cc1` [Example 7, 4-(4-((4′-chloro-1,1′-biphenyl-2-yl)methyl)piperazin-1-yl)-2-(4-chlorophenoxy)-N-((3-nitro-4-((tetrahydro-2H-pyran-4-ylmethyl)amino)phenyl)sulfonyl)benzamide] showed a Ki of 2.59 nM. Work on `CC1(C)CCC(CN2CCN(c3ccc(C(=O)NS(=O)(=O)c4ccc(NCC5CCOCC5)c([N+](=O)[O-])c4)c(Oc4cncc(NC(=O)OC(C)(C)C)c4)c3)CC2)=C(c2ccc(Cl)cc2)C1` [Example 278, tert-butyl 5-(5-(4-{[2-(4-chlorophenyl)-4,4-dimethylcyclohex-1-en-1-yl]methyl}piperazin-1-yl)-2-{[({3-nitro-4-[(tetrahydro-2H-pyran-4-ylmethyl)amino]phenyl}sulfonyl)amino]carbonyl}phenoxy)pyridin-3-ylcarbamate] yielded a Ki of 40 nM. With `CC1(C)CCC(CN2CCN(c3ccc(C(=O)NS(=O)(=O)c4ccc(NCCCN5CCOCC5)c([N+](=O)[O-])c4)c(Oc4ccc(F)cc4Cl)c3)CC2)=C(c2ccc(Cl)cc2)C1` [Example 120, 2-(2-chloro-4-fluorophenoxy)-4-(4-{[2-(4-chlorophenyl)-4,4-dimethylcyclohex-1-en-1-yl]methyl}piperazin-1-yl)-N-({4-[(3-morpholin-4-ylpropyl)amino]-3-nitrophenyl}sulfonyl)benzamide] the Ki was 0.214 nM. For `O=C(NS(=O)(=O)c1ccc(NCC2CCOCC2)c([N+](=O)[O-])c1)c1ccc(N2CCN(Cc3ccccc3-c3ccc(Cl)cc3)CC2)cc1Oc1ccc2[nH]cc(CCCN3CCOCC3)c2c1` [Example 74, 4-(4-((4′-chloro-1,1′-biphenyl-2-yl)methyl)piperazin-1-yl)-2-((3-(3-morpholin-4-ylpropyl)-1H-indol-5-yl)oxy)-N-((3-nitro-4-((tetrahydro-2H-pyran-4-ylmethyl)amino)phenyl)sulfonyl)benzamide], the Ki was 189 nM. `Cc1nc(C)c(-c2cccc(Oc3cc(N4CCN(Cc5ccccc5-c5ccc(Cl)cc5)CC4)ccc3C(=O)NS(=O)(=O)c3ccc(NCCCN4CCOCC4)c([N+](=O)[O-])c3)c2)s1` [Example 33, 4-(4-((4′-chloro-1,1′-biphenyl-2-yl)methyl)piperazin-1-yl)-2-(3-(2,4-dimethyl-1,3-thiazol-5-yl)phenoxy)-N-((4-((3-morpholin-4-ylpropyl)amino)-3-nitrophenyl)sulfonyl)benzamide] gave a Ki of 7.17 nM. Compound `C#Cc1cc(S(=O)(=O)NC(=O)c2ccc(N3CCN(CC4=C(c5ccc(Cl)cc5)CC(C)(C)CC4)CC3)cc2Oc2cc3cc[nH]c3cc2F)cnc1OCC1CCOCC1` [Example 322, 4-(4-{[2-(4-chlorophenyl)-4,4-dimethylcyclohex-1-en-1-yl]methyl}piperazin-1-yl)-N-{[5-ethynyl-6-(tetrahydro-2H-pyran-4-ylmethoxy)pyridin-3-yl]sulfonyl}-2-[(6-fluoro-1H-indol-5-yl)oxy]benzamide] has a Ki of 4.53 nM. `O=C(NS(=O)(=O)c1ccc(NCC2CCOCC2)c([N+](=O)[O-])c1)c1ccc(N2CCN(Cc3ccccc3-c3ccc(Cl)cc3)CC2)cc1Oc1cccc(Cl)c1` [Example 6, 4-(4-((4′-chloro-1,1′-biphenyl-2-yl)methyl)piperazin-1-yl)-2-(3-chlorophenoxy)-N-((3-nitro-4-((tetrahydro-2H-pyran-4-ylmethyl)amino)phenyl)sulfonyl)benzamide] gave a Ki of 0.787 nM. Compound `CN(C)c1cccc(Oc2cc(N3CCN(Cc4ccccc4-c4ccc(Cl)cc4)CC3)ccc2C(=O)NS(=O)(=O)c2ccc(NCC3CCOCC3)c([N+](=O)[O-])c2)c1` [Example 21, 4-(4-((4′-chloro-1,1′-biphenyl-2-yl)methyl)piperazin-1-yl)-2-(3-(dimethylamino)phenoxy)-N-((3-nitro-4-((tetrahydro-2H-pyran-4-ylmethyl)amino)phenyl)sulfonyl)benzamide] has a Ki of 14.1 nM. `CC1(C)CCC(CN2CCN(c3ccc(C(=O)NS(=O)(=O)c4ccc(NC5CCN(C6CCOCC6)CC5)c([N+](=O)[O-])c4)c(Nc4ccccc4Cl)c3)CC2)=C(c2ccc(Cl)cc2)C1` [Example 226, 2-[(2-chlorophenyl)amino]-4-(4-{[2-(4-chlorophenyl)-4,4-dimethylcyclohex-1-en-1-yl]methyl}piperazin-1-yl)-N-({3-nitro-4-[(1-tetrahydro-2H-pyran-4-ylpiperidin-4-yl)amino]phenyl}sulfonyl)benzamide] gave a Ki of 7.59 nM. For `CC1(C)CCC(CN2CCN(c3ccc(C(=O)NS(=O)(=O)c4ccc(NCCCN5CCOCC5)c([N+](=O)[O-])c4)c(Oc4cc(Cl)ccc4Cl)c3)CC2)=C(c2ccc(Cl)cc2)C1` [Example 67, 4-(4-((2-(4-chlorophenyl)-4,4-dimethylcyclohex-1-en-1-yl)methyl)piperazin-1-yl)-2-(2,5-dichlorophenoxy)-N-((4-((3-morpholin-4-ylpropyl)amino)-3-nitrophenyl)sulfonyl)benzamide], the Ki was 0.807 nM. With `CC1(C)CCC(CN2CCN(c3ccc(C(=O)NS(=O)(=O)c4ccc(NC5CCN(CCc6ccccc6)CC5)c([N+](=O)[O-])c4)c(Oc4cccc(Cl)c4)c3)CC2)=C(c2ccc(Cl)cc2)C1` [Example 163, 2-(3-chlorophenoxy)-4-(4-{[2-(4-chlorophenyl)-4,4-dimethylcyclohex-1-en-1-yl]methyl}piperazin-1-yl)-N-[(3-nitro-4-{[1-(2-phenylethyl)piperidin-4-yl]amino}phenyl)sulfonyl]benzamide] the Ki was 0.686 nM. For `CN(C)Cc1cccc(Oc2cc(N3CCN(Cc4ccccc4-c4ccc(Cl)cc4)CC3)ccc2C(=O)NS(=O)(=O)c2ccc(NCC3CCOCC3)c([N+](=O)[O-])c2)c1` [Example 1, 4-(4-((4′-chloro-1,1′-biphenyl-2-yl)methyl)piperazin-1-yl)-2-(3-((dimethylamino)methyl)phenoxy)-N-((3-nitro-4-((tetrahydro-2H-pyran-4-ylmethyl)amino)phenyl)sulfonyl)benzamide], the Ki was 8.35 nM. `CN1CCC(Nc2ccc(S(=O)(=O)NC(=O)c3ccc(N4CCN(CC5=C(c6ccc(Cl)cc6)CC(C)(C)C5)CC4)cc3Oc3ccccc3Cl)cc2[N+](=O)[O-])CC1` [Example 62, 2-(2-chlorophenoxy)-4-(4-((2-(4-chlorophenyl)-4,4-dimethylcyclopent-1-en-1-yl)methyl)piperazin-1-yl)-N-((4-((1-methylpiperidin-4-yl)amino)-3-nitrophenyl)sulfonyl)benzamide] was tested, and the Ki was 0.227 nM. With `CN1CCN(Nc2ccc(S(=O)(=O)NC(=O)c3ccc(N4CCN(CC5=C(c6ccc(Cl)cc6)CC(C)(C)OC5)CC4)cc3Oc3cccc(F)c3F)cc2[N+](=O)[O-])CC1` [Example 186, 4-(4-{[4-(4-chlorophenyl)-6,6-dimethyl-5,6-dihydro-2H-pyran-3-yl]methyl}piperazin-1-yl)-2-(2,3-difluorophenoxy)-N-({4-[(4-methylpiperazin-1-yl)amino]-3-nitrophenyl}sulfonyl)benzamide] the Ki was 0.035 nM.
